Data reported in ChEMBL document CHEMBL3885861, “Open TG-GATES”.

Organism: Rattus norvegicus
Assay: Open TG-GATES - Regimen: Single
Type: toxicity, organism-based, Sprague-Dawley
Parameters: regimen Single, gender Male, age 6 weeks
Details: in vivo, po, route gavage; for APTT / Bas / Eos / Fbg / Hb / Ht / Lym / MCH / MCHC / MCV / Mono / Neu / PT / Plat / RBC / Ret / WBC: tissue Blood; for KIDNEY_L / KIDNEY_R / KIDNEY_TOTAL: tissue Kidney; for LIVER: tissue Liver; for A/G / ALP / ALT / AST / BUN / CRE / Ca / Cl / DBIL / GLC / IP / K / LDH / Na / PL / RALB / TBIL / TC / TG / TP / gamma-GTP: tissue Plasma
[1] = 300 mg/kg, 3 h, dose level Middle
[2] = 300 mg/kg, 6 h, dose level Middle
[3] = 300 mg/kg, 9 h, dose level Middle
[4] = 300 mg/kg, 24 h, dose level Middle
[5] = 1000 mg/kg, 3 h, dose level High
[6] = 1000 mg/kg, 6 h, dose level High
[7] = 1000 mg/kg, 9 h, dose level High
[8] = 1000 mg/kg, 24 h, dose level High

COC1=CC(=O)C[C@@H](C)[C@]12Oc1c(Cl)c(OC)cc(OC)c1C2=O [GRISEOFULVIN]
TERMINAL_BW [1]: 212.4 g
APTT [1]: 18.3 s
Bas [1]: 0%
Eos [1]: 1.2%
Fbg [1]: 229.2 mg/dL
Hb [1]: 12.7 g/dL
Ht [1]: 37.4%
Lym [1]: 71.6%
MCH [1]: 21.5 pg
MCHC [1]: 34.1%
MCV [1]: 63.1 fL
Mono [1]: 3.4%
Neu [1]: 23.2%
PT [1]: 12.9 s
Plat [1]: 130.7 x10_4/uL
RBC [1]: 592 x10_4/ul
Ret [1]: 7.8%
WBC [1]: 110.1 x10_2/uL
KIDNEY_L [1]: 0.9 g
KIDNEY_R [1]: 0.9 g
KIDNEY_TOTAL [1]: 1.9 g
LIVER [1]: 9.7 g
A/G [1]: 1.6
ALP [1]: 1144 IU/L
ALT [1]: 40.8 IU/L
AST [1]: 69.2 IU/L
BUN [1]: 11.2 mg/dL
CRE [1]: 0.3 mg/dL
Ca [1]: 11 mg/dL
Cl [1]: 104.2 meq/L
DBIL [1]: 0.2 mg/dL
GLC [1]: 190.4 mg/dL
IP [1]: 8.7 mg/dL
K [1]: 4 meq/L
LDH [1]: 113.8 IU/L
Na [1]: 140.8 meq/L
PL [1]: 175.8 mg/dL
RALB [1]: 3.3 g/dL
TBIL [1]: 0.2 mg/dL
TC [1]: 84.8 mg/dL
TG [1]: 134.8 mg/dL
TP [1]: 5.3 g/dL
gamma-GTP [1]: 1.2 IU/L
TERMINAL_BW [2]: 212.5 g
APTT [2]: 17.7 s
Bas [2]: 0%
Eos [2]: 1%
Fbg [2]: 220.2 mg/dL
Hb [2]: 12.8 g/dL
Ht [2]: 38.1%
Lym [2]: 72.6%
MCH [2]: 21.8 pg
MCHC [2]: 33.6%
MCV [2]: 64.7 fL
Mono [2]: 3.6%
Neu [2]: 22.4%
PT [2]: 13.1 s
Plat [2]: 129.2 x10_4/uL
RBC [2]: 588.6 x10_4/ul
Ret [2]: 7.9%
WBC [2]: 82.9 x10_2/uL
KIDNEY_L [2]: 1 g
KIDNEY_R [2]: 1 g
KIDNEY_TOTAL [2]: 2 g
LIVER [2]: 9.5 g
A/G [2]: 1.8
ALP [2]: 1072.4 IU/L
ALT [2]: 37.2 IU/L
AST [2]: 68.4 IU/L
BUN [2]: 10.2 mg/dL
CRE [2]: 0.4 mg/dL
Ca [2]: 10.8 mg/dL
Cl [2]: 103.2 meq/L
DBIL [2]: 0.096 mg/dL
GLC [2]: 205.6 mg/dL
IP [2]: 9.7 mg/dL
K [2]: 4 meq/L
LDH [2]: 139.2 IU/L
Na [2]: 141.4 meq/L
PL [2]: 150.6 mg/dL
RALB [2]: 3.4 g/dL
TBIL [2]: 0.2 mg/dL
TC [2]: 79 mg/dL
TG [2]: 50.4 mg/dL
TP [2]: 5.4 g/dL
gamma-GTP [2]: 1.4 IU/L
TERMINAL_BW [3]: 210.4 g
APTT [3]: 17.3 s
Bas [3]: 0%
Eos [3]: 0.8%
Fbg [3]: 214 mg/dL
Hb [3]: 12.9 g/dL
Ht [3]: 38.2%
Lym [3]: 79.4%
MCH [3]: 21.4 pg
MCHC [3]: 33.9%
MCV [3]: 63.1 fL
Mono [3]: 2.6%
Neu [3]: 17%
PT [3]: 13.6 s
Plat [3]: 115.4 x10_4/uL
RBC [3]: 605 x10_4/ul
Ret [3]: 8.2%
WBC [3]: 82.6 x10_2/uL
KIDNEY_L [3]: 1 g
KIDNEY_R [3]: 1 g
KIDNEY_TOTAL [3]: 2 g
LIVER [3]: 8.7 g
A/G [3]: 1.6
ALP [3]: 1051.6 IU/L
ALT [3]: 30.8 IU/L
AST [3]: 63 IU/L
BUN [3]: 11.4 mg/dL
CRE [3]: 0.3 mg/dL
Ca [3]: 10.6 mg/dL
Cl [3]: 103.8 meq/L
DBIL [3]: 0.07 mg/dL
GLC [3]: 200.2 mg/dL
IP [3]: 10.3 mg/dL
K [3]: 3.8 meq/L
LDH [3]: 132.4 IU/L
Na [3]: 141.6 meq/L
PL [3]: 140.6 mg/dL
RALB [3]: 3.3 g/dL
TBIL [3]: 0.1 mg/dL
TC [3]: 75 mg/dL
TG [3]: 43 mg/dL
TP [3]: 5.4 g/dL
gamma-GTP [3]: 1.2 IU/L
TERMINAL_BW [4]: 223.4 g
APTT [4]: 18.9 s
Bas [4]: 0%
Eos [4]: 0.8%
Fbg [4]: 204.6 mg/dL
Hb [4]: 13.3 g/dL
Ht [4]: 40%
Lym [4]: 76.2%
MCH [4]: 21.5 pg
MCHC [4]: 33.3%
MCV [4]: 64.5 fL
Mono [4]: 2.4%
Neu [4]: 19.8%
PT [4]: 12.7 s
Plat [4]: 125.2 x10_4/uL
RBC [4]: 621 x10_4/ul
Ret [4]: 7.3%
WBC [4]: 85.6 x10_2/uL
KIDNEY_L [4]: 1 g
KIDNEY_R [4]: 1 g
KIDNEY_TOTAL [4]: 1.9 g
LIVER [4]: 10.9 g
A/G [4]: 1.8
ALP [4]: 958.6 IU/L
ALT [4]: 42.8 IU/L
AST [4]: 64.8 IU/L
BUN [4]: 14.6 mg/dL
CRE [4]: 0.4 mg/dL
Ca [4]: 10.9 mg/dL
Cl [4]: 103.8 meq/L
DBIL [4]: 0.1 mg/dL
GLC [4]: 208 mg/dL
IP [4]: 8.1 mg/dL
K [4]: 4.2 meq/L
LDH [4]: 119.8 IU/L
Na [4]: 141.4 meq/L
PL [4]: 144.6 mg/dL
RALB [4]: 3.4 g/dL
TBIL [4]: 0.2 mg/dL
TC [4]: 76.8 mg/dL
TG [4]: 102 mg/dL
TP [4]: 5.4 g/dL
gamma-GTP [4]: 1.4 IU/L
TERMINAL_BW [5]: 213.3 g
APTT [5]: 19.4 s
Bas [5]: 0%
Eos [5]: 1%
Fbg [5]: 212.2 mg/dL
Hb [5]: 12.2 g/dL
Ht [5]: 35.6%
Lym [5]: 78.4%
MCH [5]: 21.9 pg
MCHC [5]: 34.3%
MCV [5]: 63.7 fL
Mono [5]: 3%
Neu [5]: 17%
PT [5]: 13.2 s
Plat [5]: 124.4 x10_4/uL
RBC [5]: 557.4 x10_4/ul
Ret [5]: 8.3%
WBC [5]: 88.7 x10_2/uL
KIDNEY_L [5]: 0.9 g
KIDNEY_R [5]: 0.9 g
KIDNEY_TOTAL [5]: 1.9 g
LIVER [5]: 9.6 g
A/G [5]: 1.9
ALP [5]: 900 IU/L
ALT [5]: 36 IU/L
AST [5]: 66.6 IU/L
BUN [5]: 10.6 mg/dL
CRE [5]: 0.3 mg/dL
Ca [5]: 11 mg/dL
Cl [5]: 103.6 meq/L
DBIL [5]: 0.2 mg/dL
GLC [5]: 184.2 mg/dL
IP [5]: 8.2 mg/dL
K [5]: 4 meq/L
LDH [5]: 128.4 IU/L
Na [5]: 140.4 meq/L
PL [5]: 179.2 mg/dL
RALB [5]: 3.4 g/dL
TBIL [5]: 0.3 mg/dL
TC [5]: 86 mg/dL
TG [5]: 122.6 mg/dL
TP [5]: 5.2 g/dL
gamma-GTP [5]: 1.6 IU/L
TERMINAL_BW [6]: 211 g
APTT [6]: 18.5 s
Bas [6]: 0%
Eos [6]: 1%
Fbg [6]: 211.2 mg/dL
Hb [6]: 12.7 g/dL
Ht [6]: 37.4%
Lym [6]: 75.6%
MCH [6]: 21.9 pg
MCHC [6]: 34%
MCV [6]: 64.3 fL
Mono [6]: 4%
Neu [6]: 19%
PT [6]: 13.3 s
Plat [6]: 123.4 x10_4/uL
RBC [6]: 582 x10_4/ul
Ret [6]: 7.7%
WBC [6]: 90 x10_2/uL
KIDNEY_L [6]: 1 g
KIDNEY_R [6]: 1 g
KIDNEY_TOTAL [6]: 2 g
LIVER [6]: 9.2 g
A/G [6]: 1.7
ALP [6]: 994.4 IU/L
ALT [6]: 34 IU/L
AST [6]: 66.8 IU/L
BUN [6]: 10.4 mg/dL
CRE [6]: 0.3 mg/dL
Ca [6]: 10.8 mg/dL
Cl [6]: 103.2 meq/L
DBIL [6]: 0.092 mg/dL
GLC [6]: 204 mg/dL
IP [6]: 9.1 mg/dL
K [6]: 4.1 meq/L
LDH [6]: 144.2 IU/L
Na [6]: 141 meq/L
PL [6]: 154.6 mg/dL
RALB [6]: 3.3 g/dL
TBIL [6]: 0.2 mg/dL
TC [6]: 82.8 mg/dL
TG [6]: 45 mg/dL
TP [6]: 5.3 g/dL
gamma-GTP [6]: 1.4 IU/L
TERMINAL_BW [7]: 207.4 g
APTT [7]: 17.9 s
Bas [7]: 0%
Eos [7]: 0.8%
Fbg [7]: 202.4 mg/dL
Hb [7]: 12.4 g/dL
Ht [7]: 36.1%
Lym [7]: 75.2%
MCH [7]: 21.5 pg
MCHC [7]: 34.3%
MCV [7]: 62.8 fL
Mono [7]: 2.2%
Neu [7]: 21.6%
PT [7]: 13.9 s
Plat [7]: 113.3 x10_4/uL
RBC [7]: 575.8 x10_4/ul
Ret [7]: 7.7%
WBC [7]: 71.8 x10_2/uL
KIDNEY_L [7]: 0.9 g
KIDNEY_R [7]: 1 g
KIDNEY_TOTAL [7]: 1.9 g
LIVER [7]: 8.4 g
A/G [7]: 1.8
ALP [7]: 1031 IU/L
ALT [7]: 31.4 IU/L
AST [7]: 67.6 IU/L
BUN [7]: 10.8 mg/dL
CRE [7]: 0.3 mg/dL
Ca [7]: 10.8 mg/dL
Cl [7]: 104.4 meq/L
DBIL [7]: 0.07 mg/dL
GLC [7]: 186.4 mg/dL
IP [7]: 10.1 mg/dL
K [7]: 3.9 meq/L
LDH [7]: 153.2 IU/L
Na [7]: 142.2 meq/L
PL [7]: 134.2 mg/dL
RALB [7]: 3.5 g/dL
TBIL [7]: 0.1 mg/dL
TC [7]: 74.2 mg/dL
TG [7]: 26.8 mg/dL
TP [7]: 5.5 g/dL
gamma-GTP [7]: 1.2 IU/L
TERMINAL_BW [8]: 222.6 g
APTT [8]: 18.9 s
Bas [8]: 0%
Eos [8]: 0.8%
Fbg [8]: 206.4 mg/dL
Hb [8]: 13.1 g/dL
Ht [8]: 39.3%
Lym [8]: 79.2%
MCH [8]: 21.9 pg
MCHC [8]: 33.4%
MCV [8]: 65.5 fL
Mono [8]: 2.6%
Neu [8]: 16.8%
PT [8]: 13 s
Plat [8]: 123.4 x10_4/uL
RBC [8]: 600.4 x10_4/ul
Ret [8]: 8%
WBC [8]: 97.5 x10_2/uL
KIDNEY_L [8]: 1 g
KIDNEY_R [8]: 1 g
KIDNEY_TOTAL [8]: 2 g
LIVER [8]: 10.5 g
A/G [8]: 1.6
ALP [8]: 1124.8 IU/L
ALT [8]: 39.8 IU/L
AST [8]: 69.8 IU/L
BUN [8]: 13.2 mg/dL
CRE [8]: 0.4 mg/dL
Ca [8]: 10.9 mg/dL
Cl [8]: 104 meq/L
DBIL [8]: 0.1 mg/dL
GLC [8]: 212.4 mg/dL
IP [8]: 8.5 mg/dL
K [8]: 4 meq/L
LDH [8]: 148.6 IU/L
Na [8]: 141 meq/L
PL [8]: 153 mg/dL
RALB [8]: 3.3 g/dL
TBIL [8]: 0.2 mg/dL
TC [8]: 88 mg/dL
TG [8]: 88.4 mg/dL
TP [8]: 5.4 g/dL
gamma-GTP [8]: 1.4 IU/L
